Laboratory results: patent publication US11578074B2, “Nitrogenous heterocyclic compound, preparation method, intermediate, composition, and application” (SHANGHAI PHARMACEUTICALS HOLDING CO., LTD., priority 2017, dated 2023)

Experiment: In vivo pharmacokinetic study in mice
Details: male, ICR, mouse, plasma, oral, 3 mg/kg intravenous, 10 mg/kg intragastric
Experimental: 24 male ICR mice weighing 18-22 g (provided by Shanghai Xipuerbikai Experimental Animal Co., Ltd, certificate No.: 20130016005759). The mice were fasted for feed but not water for 12-16 hours before the experiment. 24 mice were divided into 2 groups with 12 mice in each group. The first group was intravenously administrated with 3 mg/kg (which was dissolved by the ratio 0.9% physiological saline:PEG 400=8:2, to give a clear solution with a concentration of 0.3 mg/mL and a dosage volume of 10 mL/kg) of the final product of Embodiment 45. Blood samples were collected before administration and 2, 5, 15, 30, 60, 90, 120, 240, 360, 480, 600 and 1440 minutes after administration, respectively. The second group was intragastricly administrated with 10 mg/kg (0.5% CMC-Na was added and grounded into a uniform suspension with a concentration of 0.5 mg/mL and a dosage volume of 20 mL/kg) of the final product of Embodiment 45. […]
0.4 mL of blood was taken from fundus venous plexus of mice and rats into a heparinized centrifuge tube (10 μL heparin sodium solution/tube). […] After vortexing for 10 minutes and centrifuging at 6000 g and 4° C. for 10 minutes, the supernatant was diluted with mobile phase in a 96-well plate, and the drug concentration in plasma was determined by UPLC/MS-MS.

bioavailability: 87.7%
Compound: CCOc1cc2ncnc(Nc3ccc(Oc4ccn5ncnc5c4)c(C)c3)c2cc1NC(=O)/C(F)=C/[C@H]1CCCN1C [Final product of Embodiment 45]
